Measurements published in publication PMC6508583 (Journal of the American Chemical Society, 2019).
Values after ≈ are worked out from the molar mass of the structure shown. Read-outs that look alike come from different tables or passages of the source.

What was measured:
[1] = system: Cyt14 hybrid ribosome (decoding A site of the human cytoplasmic ribosome); type: biochemical; details: for Selectivity Cyt14: Cyt14 over wt bacterial ribosome; for IC50 Cyt 14: in vitro translation inhibition, Cyt14 hybrid ribosome
[2] = system: E. coli carrying specific resistance determinants; test: Activity against wild-type and engineered E. coli carrying specific AMEs or RMTs; type: cell-based; details: for MIC: Escherichia coli; for Activity (MIC) E. coli AG006: strain AG006, WT; for Activity (MIC) E. coli AG007: strain AG007, AAC(3); for Activity (MIC) E. coli AG008: strain AG008, ANT(2’’); for Activity (MIC) E. coli AG009: strain AG009, AAC(6’); for Activity (MIC) E. coli AG036: strain AG036, ANT(4′,4′′); for Activity (MIC) E. coli AG103: strain AG103, armA; for Activity (MIC) E. coli AG105: strain AG105, AAC(2′); for Activity (MIC) E. coli AG166: strain AG166, APH(3′)
[3] = system: A1555G mutant mitochondrial hybrid ribosome; type: biochemical, human; details: for Selectivity A1555G: A1555G over wt bacterial ribosome; for IC50 A1555G: in vitro translation inhibition, A1555G mutant mitochondrial hybrid ribosome
[4] = system: Mit13 hybrid ribosome (decoding A site of the human mitochondrial ribosome); type: biochemical; details: for Selectivity Mit 13: Mit13 over wt bacterial ribosome; for IC50 Mit13: in vitro translation inhibition, Mit13 hybrid ribosome
E. cloacae = test: Antibacterial activity against reference strains: E. cloacae; type: cell-based; details: for MIC: Enterobacter cloacae, read-out: Antibacterial activity (MIC) E. cloacae AG290; for Antibacterial activity (MIC) E. cloacae AG290: strain AG290
E. coli = test: Antibacterial activity against reference strains: E. coli; details: for MIC: Escherichia coli; for Antibacterial activity (MIC) E. coli AG001: strain AG001; for Antibacterial activity (MIC) E. coli AG003: strain AG003 carries the AAC(3) gene
[5] = system: wild-type bacterial ribosome; test: Cell-free translation assay, wild-type bacterial ribosome; type: biochemical; details: in vitro translation inhibition
E coli = test: Neutropenic mouse thigh infection model; type: in vivo; details: dose 3 mg.kg^−1
MRSA = test: Antibacterial activity against reference strains: MRSA; type: cell-based; details: for MIC: Staphylococcus aureus, MRSA; for Antibacterial activity (MIC) MRSA AG038: strain AG038; for Antibacterial activity (MIC) MRSA AG042: strain AG042 carries the AAC(6)’, ANT(4’,4’’) and APH(3’) genes
[6] = system: Mycobacterium tuberculosis clinical isolates; test: microbe, parasite or virus in culture; type: cell-based; details: Mycobacterium tuberculosis, read-out: MIC M. tuberculosis clinical isolates
Mycobacterium abscessus = test: microbe, parasite or virus in culture; type: cell-based; details: Mycobacteroides abscessus
[7] = system: E coli 70S ribosome (helix 44, A1408); test: Quantitative dimethyl sulfate footprinting of the 70S ribosome; type: binding; details: read-out: apparent Kd; DMS footprinting, % protection of N1 of A1408, E. coli 70S ribosome
K. pneumoniae = test: Antibacterial activity against reference strains: K. pneumoniae; type: cell-based; details: strain AG215
A. baumannii = test: Antibacterial activity against reference strains: A. baumannii; type: cell-based; details: strain AG225
P. aeruginosa = test: Antibacterial activity against reference strains: P. aeruginosa; details: for Antibacterial activity (MIC) P. aeruginosa AG031: strain AG031 carries the APH(3’) gene
[8] = system: NIH 3T3 mouse embryonic fibroblast cells; type: cell-based
[9] = read-out: Activity (MIC) E. coli AG006
[10] = read-out: Activity (MIC) E. coli AG007
[11] = read-out: Activity (MIC) E. coli AG008
[12] = read-out: Activity (MIC) E. coli AG009
[13] = read-out: Activity (MIC) E. coli AG036
[14] = read-out: Activity (MIC) E. coli AG103
[15] = read-out: Activity (MIC) E. coli AG105
[16] = read-out: Activity (MIC) E. coli AG166
[17] = read-out: Antibacterial activity (MIC) E. coli AG001
[18] = read-out: Antibacterial activity (MIC) E. coli AG003
[19] = read-out: Antibacterial activity (MIC) MRSA AG038

## CN[C@@H]1[C@@H](O)[C@@H](O[C@@H]2[C@@H](O)[C@H](O[C@H]3OC(CNCCO)=CC[C@H]3N)[C@@H](N)C[C@H]2NC(=O)[C@@H](O)CCN)OC[C@]1(C)O [Plazomicin, reference compound]
[1]
  Selectivity Cyt14: 6983
  IC50 Cyt 14: 419 µg/mL (≈ 707 µM)
[2]; [9]
  MIC: 0.5 to 1 µg/mL (≈ 0.844 to 1.69 µM)
[2]; [10]
  MIC: 2 µg/mL (≈ 3.37 µM)
[2]; [11]
  MIC: 0.5 to 1 µg/mL (≈ 0.844 to 1.69 µM)
[2]; [12]
  MIC: 2 µg/mL (≈ 3.37 µM)
[2]; [13]
  MIC: 1 µg/mL (≈ 1.69 µM)
[2]; [14]
  MIC: > 128 µg/mL
[2]; [15]
  MIC: 1 to 2 µg/mL (≈ 1.69 to 3.37 µM)
[2]; [16]
  MIC: 1 µg/mL (≈ 1.69 µM)
[3]
  Selectivity A1555G: 47
  IC50 A1555G: 2.8 µg/mL (≈ 4.72 µM)
[4]
  Selectivity Mit 13: 833
  IC50 Mit13: 50 µg/mL (≈ 84.4 µM)
E. cloacae
  MIC: 0.5 µg/mL (≈ 0.844 µM)
E. coli; [17]
  MIC: 2 µg/mL (≈ 3.37 µM)
E. coli; [18]
  MIC: 2 to 4 µg/mL (≈ 3.37 to 6.75 µM)
[5]
  IC50 wt: 0.06 µg/mL (≈ 0.101 µM)
E coli
  log reduction in colony-forming units (CFUs) compared to vehicle: similar
MRSA; [19]
  MIC: 2 µg/mL (≈ 3.37 µM)

## NC[C@@H]1O[C@H](O[C@H]2[C@@H](O)[C@H](O[C@@H]3[C@@H](O)[C@H](N)C[C@H](N)[C@H]3O[C@H]3O[C@H](CO)[C@@H](O)[C@H](O)[C@H]3N)O[C@@H]2CO)[C@H](N)[C@@H](O)[C@@H]1O [Compound 1, paromomycin, reference compound]
[1]
  Selectivity Cyt14: 470
  IC50 Cyt 14: 9.4 µg/mL (≈ 15.3 µM)
[2]; [9]
  MIC: 1 to 2 µg/mL (≈ 1.62 to 3.25 µM)
[2]; [10]
  MIC: 4 µg/mL (≈ 6.5 µM)
[2]; [11]
  MIC: 2 to 4 µg/mL (≈ 3.25 to 6.5 µM)
[2]; [12]
  MIC: 4 µg/mL (≈ 6.5 µM)
[2]; [13]
  MIC: 32 to 64 µg/mL (≈ 52 to 104 µM)
[2]; [14]
  MIC: 4 µg/mL (≈ 6.5 µM)
[2]; [15]
  MIC: 2 µg/mL (≈ 3.25 µM)
[2]; [16]
  MIC: > 128 µg/mL
[3]
  Selectivity A1555G: 270
  IC50 A1555G: 5.4 µg/mL (≈ 8.77 µM)
[6]
  MIC: 2 to 4 µg/mL (≈ 3.25 to 6.5 µM)
[4]
  Selectivity Mit 13: 2500
  IC50 Mit13: 50 µg/mL (≈ 81.2 µM)
E. cloacae
  MIC: 2 µg/mL (≈ 3.25 µM)
E. coli; [17]
  MIC: 2 to 4 µg/mL (≈ 3.25 to 6.5 µM)
E. coli; [18]
  MIC: 8 to 16 µg/mL (≈ 13 to 26 µM)
[5]
  IC50 wt: 0.02 µg/mL (≈ 0.0325 µM)
Mycobacterium abscessus; read-out: MIC M. abscessus
  MIC: 64 µg/mL (≈ 104 µM)
Mycobacterium abscessus; read-out: MIC M. abscessus, AAC(2’) gene deleted
  MIC: 16 µg/mL (≈ 26 µM)
[7]
  Kd: 0.59 ± 0.05 µM
MRSA; [19]
  MIC: 4 µg/mL (≈ 6.5 µM)
MRSA; read-out: Antibacterial activity (MIC) MRSA AG042
  MIC: > 256 µg/mL

## CCOC1C(CO)OC(OC2C(N)CC(N)C(O)C2OC2OC(CO)C(OC3OC(CN)C(O)C(O)C3N)C2O)C(N)C1O (stereo not drawn) [Compound 3]
K. pneumoniae
  Antibacterial activity (MIC) K. pneumoniae AG215: 8 µg/mL
[1]
  Selectivity Cyt14: 1100
  IC50 Cyt 14: 88 µg/mL (≈ 137 µM)
A. baumannii
  Antibacterial activity (MIC) A. baumannii AG225: 16 to 32 µg/mL
[2]
  Activity (MIC) E. coli AG006: 8 to 16 µg/mL
  Activity (MIC) E. coli AG007: 16 to 32 µg/mL
  Activity (MIC) E. coli AG008: 8 µg/mL
  Activity (MIC) E. coli AG009: 16 µg/mL
  Activity (MIC) E. coli AG036: 8 to 16 µg/mL
  Activity (MIC) E. coli AG103: ≥64 µg/mL
  Activity (MIC) E. coli AG105: 8 to 16 µg/mL
  Activity (MIC) E. coli AG166: 64 µg/mL
[3]
  Selectivity A1555G: 1188
  IC50 A1555G: 95 µg/mL (≈ 148 µM)
[4]
  Selectivity Mit 13: 1075
  IC50 Mit13: 86 µg/mL (≈ 134 µM)
E. cloacae
  Antibacterial activity (MIC) E. cloacae AG290: 8 µg/mL
E. coli
  Antibacterial activity (MIC) E. coli AG001: 16 µg/mL
  Antibacterial activity (MIC) E. coli AG003: 32 µg/mL
[5]
  IC50 wt: 0.08 µg/mL (≈ 0.124 µM)
P. aeruginosa
  Antibacterial activity (MIC) P. aeruginosa AG031: >64 µg/mL
P. aeruginosa; strain AG220 carries the APH(3’) gene
  Antibacterial activity (MIC) P. aeruginosa AG220: >64 µg/mL
[7]
  Kd: 1.03 ± 0.2 µM
MRSA
  Antibacterial activity (MIC) MRSA AG038: 8 to 16 µg/mL
  Antibacterial activity (MIC) MRSA AG042: 8 to 16 µg/mL

## CCSC1C(CO)OC(OC2C(N)CC(N)C(O)C2OC2OC(CO)C(OC3OC(CN)C(O)C(O)C3N)C2O)C(N)C1O (stereo not drawn) [Compound 4, 4’-deoxy-4’-ethylthioparomomycin]
K. pneumoniae
  Antibacterial activity (MIC) K. pneumoniae AG215: 2 µg/mL
[1]
  Selectivity Cyt14: 1500
  IC50 Cyt 14: 60 µg/mL (≈ 90.9 µM)
A. baumannii
  Antibacterial activity (MIC) A. baumannii AG225: 4 µg/mL
[2]
  Activity (MIC) E. coli AG006: 1 to 2 µg/mL
  Activity (MIC) E. coli AG007: 4 µg/mL
  Activity (MIC) E. coli AG008: 1 µg/mL
  Activity (MIC) E. coli AG009: 4 µg/mL
  Activity (MIC) E. coli AG036: 1 to 2 µg/mL
  Activity (MIC) E. coli AG103: 8 µg/mL
  Activity (MIC) E. coli AG105: 2 to 4 µg/mL
  Activity (MIC) E. coli AG166: 4 µg/mL
[3]
  Selectivity A1555G: 1150
  IC50 A1555G: 46 µg/mL (≈ 69.7 µM)
[4]
  Selectivity Mit 13: 2775
  IC50 Mit13: 111 µg/mL (≈ 168 µM)
E. cloacae
  Antibacterial activity (MIC) E. cloacae AG290: 2 to 4 µg/mL
E. coli
  Antibacterial activity (MIC) E. coli AG001: 8 µg/mL
  Antibacterial activity (MIC) E. coli AG003: 8 µg/mL
[5]
  IC50 wt: 0.04 µg/mL (≈ 0.0606 µM)
P. aeruginosa
  Antibacterial activity (MIC) P. aeruginosa AG031: 32 µg/mL
[8]
  loss of cell viability: only minimal loss of cell viability
MRSA
  Antibacterial activity (MIC) MRSA AG038: 4 µg/mL
  Antibacterial activity (MIC) MRSA AG042: 2 to 4 µg/mL
